Test results taken from ChEMBL document CHEMBL1201862, “PubChem BioAssay data set” (2004).
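In this assay, cells in 96-well plates receive the compound at five concentrations for 48 hours. Endpoints are linearly interpolated between the surrounding concentrations. GI50: concentration for 50% inhibition of growth.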 Activity calls are given as the source filed them. Cut-off read from the data, not from the text of the source: active = GI50 up to about 1.1 µM and inactive = higher.

Columns and labels:
Assay in all cases: inhibition of tumour cell growth, NCI panel, 48 h
HT-29 = test system: HT-29
SR = test system: SR
SK-MEL-5 = test system: SK-MEL-5
SF-539 = test system: SF-539
IGROV-1 = test system: IGROV-1
UACC-62 = test system: UACC-62
MDA-N = test system: MDA-N
LOX IMVI = test system: LOX IMVI
K562 = test system: K562
MDA-MB-435 = test system: MDA-MB-435
UACC-257 = test system: UACC-257
OVCAR-5 = test system: OVCAR-5
TK-10 = test system: TK-10
M14 = test system: M14
UO-31 = test system: UO-31
HCT-116 = test system: HCT-116
HCC 2998 = test system: HCC 2998

Compound	GI50 (HT-29)	GI50 (SR)	GI50 (SK-MEL-5)	GI50 (SF-539)	GI50 (IGROV-1)	GI50 (UACC-62)	GI50 (MDA-N)	GI50 (LOX IMVI)	GI50 (K562)	GI50 (MDA-MB-435)	GI50 (UACC-257)	GI50 (OVCAR-5)	GI50 (TK-10)	GI50 (M14)	GI50 (UO-31)	GI50 (HCT-116)	GI50 (HCC 2998)
NS(=O)(=O)c1ccc(/N=N/c2ncccc2O)cc1	> 100 µM (inactive)	23.1 µM (inactive)	> 100 µM (inactive)	55.6 µM (inactive)	> 100 µM (inactive)	> 100 µM (inactive)	> 100 µM (inactive)	77.4 µM (inactive)	40.2 µM (inactive)	> 100 µM (inactive)	> 100 µM (inactive)	> 100 µM (inactive)	> 100 µM (inactive)	> 100 µM (inactive)	> 100 µM (inactive)	39.3 µM (inactive)	–
Cc1cc(=O)oc2cc(O)c(CN(C)CC(=O)O)cc12	> 100 µM (inactive)	> 100 µM (inactive)	> 100 µM (inactive)	> 100 µM (inactive)	> 100 µM (inactive)	> 100 µM (inactive)	> 100 µM (inactive)	> 100 µM (inactive)	> 100 µM (inactive)	> 100 µM (inactive)	> 100 µM (inactive)	> 100 µM (inactive)	> 100 µM (inactive)	> 100 µM (inactive)	> 100 µM (inactive)	> 100 µM (inactive)	> 100 µM (inactive)
O=C1N[C@@H](c2c[nH]c3ccc(Br)cc23)C(=O)N[C@H]1c1c[nH]c2ccc(Br)cc12	7.5 µM (inactive)	4.72 µM (inactive)	5.38 µM (inactive)	5.21 µM (inactive)	10.9 µM (inactive)	7.26 µM (inactive)	8.17 µM (inactive)	6.14 µM (inactive)	4.47 µM (inactive)	4.25 µM (inactive)	12 µM (inactive)	13.9 µM (inactive)	4.06 µM (inactive)	9.12 µM (inactive)	16.3 µM (inactive)	7.93 µM (inactive)	3.61 µM (inactive)
COc1cc(C2OC(N)=C(C#N)C3=C2C(C)CCC3)cc(OC)c1OC (stereo unspecified)	> 100 µM (inactive)	0.136 µM (active)	> 100 µM (inactive)	11.9 µM (inactive)	47.1 µM (inactive)	> 100 µM (inactive)	> 100 µM (inactive)	> 100 µM (inactive)	> 100 µM (inactive)	> 100 µM (inactive)	> 100 µM (inactive)	> 100 µM (inactive)	> 100 µM (inactive)	> 100 µM (inactive)	> 100 µM (inactive)	> 100 µM (inactive)	–
CO[C@@H]1C[C@H]2[C@@H]3CC[C@H]([C@H](C)COC(C)=O)[C@@]3(C)CC[C@@H]2[C@@]2(C)CC[C@H]3C[C@]312	> 100 µM (inactive)	> 100 µM (inactive)	> 100 µM (inactive)	> 100 µM (inactive)	> 100 µM (inactive)	–	> 100 µM (inactive)	> 100 µM (inactive)	63.1 µM (inactive)	> 100 µM (inactive)	> 100 µM (inactive)	> 100 µM (inactive)	> 100 µM (inactive)	> 100 µM (inactive)	> 100 µM (inactive)	> 100 µM (inactive)	> 100 µM (inactive)
C=C1C(=O)OC2/C=C(\C)C(=O)CC3OC(C)(C)OC3(C)CC(OC(=O)/C(C)=C/C)C12 (stereo unspecified)	7.89 µM (inactive)	3.05 µM (inactive)	14.7 µM (inactive)	17.1 µM (inactive)	14.4 µM (inactive)	9.98 µM (inactive)	13.2 µM (inactive)	12.2 µM (inactive)	4.05 µM (inactive)	19.6 µM (inactive)	13.7 µM (inactive)	20.4 µM (inactive)	13.2 µM (inactive)	22.5 µM (inactive)	13.9 µM (inactive)	7.43 µM (inactive)	15.9 µM (inactive)
CCOC(=O)c1ccc(NC(NC(=O)CC)(C(F)(F)F)C(F)(F)F)cc1	> 100 µM (inactive)	14.1 µM (inactive)	> 100 µM (inactive)	> 100 µM (inactive)	> 100 µM (inactive)	34.4 µM (inactive)	> 100 µM (inactive)	96.2 µM (inactive)	39.3 µM (inactive)	> 100 µM (inactive)	> 100 µM (inactive)	> 100 µM (inactive)	> 100 µM (inactive)	> 100 µM (inactive)	36.2 µM (inactive)	> 100 µM (inactive)	> 100 µM (inactive)
Cc1cc(C)c2c(=O)n(CN3CCC(C#N)(c4ccccc4)CC3)sc2n1	39.9 µM (inactive)	49.9 µM (inactive)	72.1 µM (inactive)	31.3 µM (inactive)	> 100 µM (inactive)	> 100 µM (inactive)	29.6 µM (inactive)	26.2 µM (inactive)	54 µM (inactive)	24.4 µM (inactive)	22.2 µM (inactive)	30.9 µM (inactive)	25.6 µM (inactive)	50.2 µM (inactive)	17.8 µM (inactive)	> 100 µM (inactive)	–
O=C1C[C@H]2[C@@H](O1)[C@@H](O)CN1C(=O)c3ccccc3[C@H]21	> 100 µM (inactive)	> 100 µM (inactive)	> 100 µM (inactive)	> 100 µM (inactive)	> 100 µM (inactive)	> 100 µM (inactive)	> 100 µM (inactive)	> 100 µM (inactive)	> 100 µM (inactive)	> 100 µM (inactive)	> 100 µM (inactive)	> 100 µM (inactive)	> 100 µM (inactive)	> 100 µM (inactive)	> 100 µM (inactive)	> 100 µM (inactive)	> 100 µM (inactive)
O=C1CCCCC1CN1CCCCC1 (stereo unspecified)	> 100 µM (inactive)	8.89 µM (inactive)	> 100 µM (inactive)	> 100 µM (inactive)	> 100 µM (inactive)	> 100 µM (inactive)	> 100 µM (inactive)	> 100 µM (inactive)	> 100 µM (inactive)	> 100 µM (inactive)	–	> 100 µM (inactive)	> 100 µM (inactive)	> 100 µM (inactive)	> 100 µM (inactive)	> 100 µM (inactive)	> 100 µM (inactive)
C=CC(C)(C)n1cc(C2=C(O)C(=O)C(c3c(CC=C(C)C)[nH]c4ccccc34)=C(O)C2=O)c2ccccc21	2.28 µM (inactive)	0.745 µM (active)	1.87 µM (inactive)	–	0.879 µM (active)	0.34 µM (active)	0.718 µM (active)	0.998 µM (active)	0.476 µM (active)	0.711 µM (active)	2.88 µM (inactive)	2.89 µM (inactive)	–	1.34 µM (inactive)	0.67 µM (active)	1.94 µM (inactive)	1.04 µM (active)
COC(=O)c1ccc(C)cc1CC1Cc2cc(C)ccc2C1=O (stereo unspecified)	> 100 µM (inactive)	> 100 µM (inactive)	–	> 100 µM (inactive)	> 100 µM (inactive)	> 100 µM (inactive)	> 100 µM (inactive)	> 100 µM (inactive)	> 100 µM (inactive)	> 100 µM (inactive)	> 100 µM (inactive)	> 100 µM (inactive)	> 100 µM (inactive)	> 100 µM (inactive)	> 100 µM (inactive)	> 100 µM (inactive)	> 100 µM (inactive)
CCOC(=O)c1c(O)cc(=O)[nH]c1N1CCOCC1	> 100 µM (inactive)	> 100 µM (inactive)	> 100 µM (inactive)	> 100 µM (inactive)	> 100 µM (inactive)	> 100 µM (inactive)	> 100 µM (inactive)	> 100 µM (inactive)	> 100 µM (inactive)	> 100 µM (inactive)	> 100 µM (inactive)	> 100 µM (inactive)	–	> 100 µM (inactive)	> 100 µM (inactive)	> 100 µM (inactive)	> 100 µM (inactive)
C=C(C)C(O)C(O)c1c(OC)ccc2ccc(=O)oc12 (stereo unspecified)	> 100 µM (inactive)	> 100 µM (inactive)	> 100 µM (inactive)	> 100 µM (inactive)	> 100 µM (inactive)	> 100 µM (inactive)	> 100 µM (inactive)	–	> 100 µM (inactive)	> 100 µM (inactive)	> 100 µM (inactive)	> 100 µM (inactive)	> 100 µM (inactive)	> 100 µM (inactive)	> 100 µM (inactive)	> 100 µM (inactive)	> 100 µM (inactive)
CC(CN(C)C)C(O)(c1ccccc1)c1ccccc1 (stereo unspecified)	> 100 µM (inactive)	> 100 µM (inactive)	> 100 µM (inactive)	> 100 µM (inactive)	> 100 µM (inactive)	> 100 µM (inactive)	> 100 µM (inactive)	> 100 µM (inactive)	> 100 µM (inactive)	> 100 µM (inactive)	> 100 µM (inactive)	> 100 µM (inactive)	> 100 µM (inactive)	> 100 µM (inactive)	> 100 µM (inactive)	> 100 µM (inactive)	27.2 µM (inactive)
C#CCN(Cc1ccc2[nH]c(N)nc(=O)c2c1)c1ccc(C(=O)NC(CCC(=O)O)C(=O)O)cc1 (stereo unspecified)	> 100 µM (inactive)	> 100 µM (inactive)	> 100 µM (inactive)	0.506 µM (active)	62.1 µM (inactive)	–	> 100 µM (inactive)	3.24 µM (inactive)	–	> 100 µM (inactive)	> 100 µM (inactive)	> 100 µM (inactive)	10.8 µM (inactive)	51.3 µM (inactive)	5.66 µM (inactive)	> 100 µM (inactive)	> 100 µM (inactive)
Cc1ncc([N+](=O)[O-])n1CCNC(=O)Cn1ccnc1[N+](=O)[O-]	> 100 µM (inactive)	> 100 µM (inactive)	> 100 µM (inactive)	> 100 µM (inactive)	> 100 µM (inactive)	> 100 µM (inactive)	> 100 µM (inactive)	–	> 100 µM (inactive)	> 100 µM (inactive)	> 100 µM (inactive)	> 100 µM (inactive)	> 100 µM (inactive)	> 100 µM (inactive)	> 100 µM (inactive)	> 100 µM (inactive)	> 100 µM (inactive)
